Legend:
human AT1 receptor = target: T1, human AT1 receptor (Homo sapiens, UniProt P30556); assay: AT1 receptor antagonistic activity: [125I]-angiotensin II binding assay on human AT1 receptor-expressing CHO-K1 cellular membrane fraction; conditions: 22.5 pM [125I]-angiotensin II, 1 hr room temperature
T1 construct: expressed in transfected cells; membrane fraction
T1 sequence (P30556 1-359): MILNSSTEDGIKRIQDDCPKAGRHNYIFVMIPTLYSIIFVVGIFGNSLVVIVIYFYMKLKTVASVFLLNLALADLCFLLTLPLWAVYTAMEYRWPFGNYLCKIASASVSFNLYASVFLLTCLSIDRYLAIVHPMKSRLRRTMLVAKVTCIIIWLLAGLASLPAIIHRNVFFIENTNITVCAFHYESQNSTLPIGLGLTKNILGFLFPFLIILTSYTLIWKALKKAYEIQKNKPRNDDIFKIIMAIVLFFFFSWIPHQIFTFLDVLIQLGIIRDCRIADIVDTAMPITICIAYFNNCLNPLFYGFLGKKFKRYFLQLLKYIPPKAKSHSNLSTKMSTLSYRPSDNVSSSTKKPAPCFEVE
Procedure, shortened: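 Competition binding used radiolabelled angiotensin II on stably transfected CHO-K1 membrane fractions in Tris pH 7.4/MgCl2 buffer, optionally containing 0.3 mg/mL fatty acid-free BSA, 1 hr at room temperature. Filtration onto GF/C separated bound tracer, and nonspecific binding was measured with candesartan.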

human PPARγ = target: T2, human PPARγ (Homo sapiens, UniProt P37231); assay: PPARγ agonistic activity: luciferase reporter assay in PPARγ:RXRα:4ERPP/CHO-K1 cells; type: cell-based; conditions: CHO-K1, test compound 10^−6 M; luciferase activity of control compound X (1 μM) = 100%, non-administration group = 0%
T2 construct: expressed in transfected cells
T2 sequence (P37231 1-477 isoform P37231-2): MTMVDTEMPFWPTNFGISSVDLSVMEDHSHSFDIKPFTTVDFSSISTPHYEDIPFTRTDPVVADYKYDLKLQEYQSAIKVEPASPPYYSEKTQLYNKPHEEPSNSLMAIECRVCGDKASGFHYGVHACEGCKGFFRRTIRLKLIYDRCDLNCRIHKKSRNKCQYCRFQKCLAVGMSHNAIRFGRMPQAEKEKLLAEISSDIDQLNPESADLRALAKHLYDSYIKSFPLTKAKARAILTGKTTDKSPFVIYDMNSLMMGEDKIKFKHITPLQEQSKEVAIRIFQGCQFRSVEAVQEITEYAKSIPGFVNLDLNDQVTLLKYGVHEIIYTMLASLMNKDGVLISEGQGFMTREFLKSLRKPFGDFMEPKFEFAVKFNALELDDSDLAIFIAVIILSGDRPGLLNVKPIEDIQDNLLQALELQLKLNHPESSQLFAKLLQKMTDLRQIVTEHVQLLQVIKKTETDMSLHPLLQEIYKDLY
T2 sequence (P19793 1-462 partner): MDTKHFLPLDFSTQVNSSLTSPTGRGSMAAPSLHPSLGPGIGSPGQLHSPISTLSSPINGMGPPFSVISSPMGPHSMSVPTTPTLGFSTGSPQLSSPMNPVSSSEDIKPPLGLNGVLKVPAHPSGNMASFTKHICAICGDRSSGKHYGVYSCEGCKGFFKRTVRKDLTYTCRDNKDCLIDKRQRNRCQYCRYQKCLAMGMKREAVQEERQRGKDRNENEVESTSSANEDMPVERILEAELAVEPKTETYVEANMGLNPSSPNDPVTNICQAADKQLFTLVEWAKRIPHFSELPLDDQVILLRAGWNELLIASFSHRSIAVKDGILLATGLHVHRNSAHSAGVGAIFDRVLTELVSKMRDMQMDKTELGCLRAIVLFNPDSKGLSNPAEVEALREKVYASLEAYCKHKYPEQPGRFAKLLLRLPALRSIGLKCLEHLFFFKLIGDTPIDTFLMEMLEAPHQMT
Procedure, shortened: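 CHO-K1 cells stably carrying hPPARγ/RXRα and a 4ERPP luciferase reporter, dosed with test compound for 1 day at 37 °C in Ham's F12 with 0.1% fatty acid-free BSA. Luciferase read by luminescence; activity given as % of 1 μM control compound X (100%) versus untreated (0%).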

Structure (SMILES)	IC50 (human AT1 receptor) [nM]	activation at 1 µM (human PPARγ) [%]
CCCCc1c(Cc2ccc(-c3ccccc3-c3noc(=O)[nH]3)cc2)c(=O)n(C2CCC(OC)CC2)c2ncnn12 (stereo not shown) [Example 148, 7-butyl-4-(4-methoxycyclohexyl)-6-{[2′-(5-oxo-4,5-dihydro-1,2,4-oxadiazol-3-yl)biphenyl-4-yl]methyl}[1,2,4]triazolo[1,5-a]pyrimidin-5(4H)-one]	1.9	52
CCCc1c(Cc2ccc(-c3ccccc3-c3noc(=O)[nH]3)cc2)c(=O)n(C2CCC(OC)CC2)c2ncnn12 (stereo not shown) [Example 152, 4-(4-methoxycyclohexyl)-6-{[2′-(5-oxo-4,5-dihydro-1,2,4-oxadiazol-3-yl)biphenyl-4-yl]methyl}-7-propyl[1,2,4]triazolo[1,5-a]pyrimidin-5(4H)-one]	2.4	39
C=CCOC1CCC(n2c(=O)c(Cc3ccc(-c4ccccc4-c4noc(=O)[nH]4)cc3)c(CCC)n3ncnc23)CC1 (stereo not shown) [Example 153, 6-{[2′-(5-oxo-4,5-dihydro-1,2,4-oxadiazol-3-yl)biphenyl-4-yl]methyl}-4-[4-(prop-2-en-1-yloxy)cyclohexyl]-7-propyl[1,2,4]triazolo[1,5-a]pyrimidin-5(4H)-one]	1.9	53
CCCc1c(Cc2ccc(-c3ccccc3-c3noc(=O)[nH]3)cc2)c(=O)n(C2CCC(OCCOC)CC2)c2ncnn12 (stereo not shown) [Example 154, 4-[4-(2-methoxyethoxy)cyclohexyl]-6-{[2′-(5-oxo-4,5-dihydro-1,2,4-oxadiazol-3-yl)biphenyl-4-yl]methyl}-7-propyl[1,2,4]triazolo[1,5-a]pyrimidin-5(4H)-one]	2.1	33
CCCc1c(Cc2ccc(-c3ccccc3-c3noc(=O)[nH]3)cc2)c(=O)n([C@H]2CC[C@@H](OCCO)CC2)c2ncnn12 [Example 163, 4-[cis-4-(2-hydroxyethoxy)cyclohexyl]-6-{[2′-(5-oxo-4,5-dihydro-1,2,4-oxadiazol-3-yl)biphenyl-4-yl]methyl}-7-propyl[1,2,4]triazolo[1,5-a]pyrimidin-5(4H)-one]	1.6	40
CCCc1c(Cc2ccc(-c3ccccc3-c3noc(=O)[nH]3)cc2)c(=O)n(C2CCC3(CC2)OCC(C)(C)CO3)c2ncnn12 [Example 170, 4-(3,3-dimethyl-1,5-dioxaspiro[5.5]undec-9-yl)-6-{[2′-(5-oxo-4,5-dihydro-1,2,4-oxadiazol-3-yl)biphenyl-4-yl]methyl}-7-propyl[1,2,4]triazolo[1,5-a]pyrimidin-5(4H)-one]	1.6	20
CCCc1c(Cc2ccc(-c3ccccc3-c3noc(=O)[nH]3)cc2)c(=O)n([C@H]2CC[C@H](c3nnc(C)o3)CC2)c2ncnn12 [Example 173, 4-[trans-4-(5-methyl-1,3,4-oxadiazol-2-yl)cyclohexyl]-6-{[2′-(5-oxo-4,5-dihydro-1,2,4-oxadiazol-3-yl)biphenyl-4-yl]methyl}-7-propyl[1,2,4]triazolo[1,5-a]pyrimidin-5(4H)-one]	1.7	28
CCCc1c(Cc2ccc(-c3ccccc3-c3noc(=O)[nH]3)cc2)c(=O)n(C2CCC3(CC2)OCC(C)(C)O3)c2ncnn12 (stereo not shown) [Example 179, 4-(2,2-dimethyl-1,4-dioxaspiro[4.5]dec-8-yl)-6-{[2′-(5-oxo-4,5-dihydro-1,2,4-oxadiazol-3-yl)biphenyl-4-yl]methyl}-7-propyl[1,2,4]triazolo[1,5-a]pyrimidin-5(4H)-one]	1.9	41

More lines, now with the values ahead:

IC50 (human AT1 receptor) [nM]	activation at 1 µM (human PPARγ) [%]	Structure (SMILES)
1	26	CCCCc1c(Cc2ccc(-c3ccccc3-c3noc(=O)[nH]3)cc2)c(=O)n(C2CCC(O)CC2)c2ncnn12 (stereo not shown) [Example 147, 7-butyl-4-(4-hydroxycyclohexyl)-6-{[2′-(5-oxo-4,5-dihydro-1,2,4-oxadiazol-3-yl)biphenyl-4-yl]methyl}[1,2,4]triazolo[1,5-a]pyrimidin-5(4H)-one]
1.4	58	CCCc1c(Cc2ccc(-c3ccccc3-c3noc(=O)[nH]3)cc2)c(=O)n([C@H]2CC[C@]3(CCCO3)CC2)c2ncnn12 [Example 150, 4-[(5S,8S)-1-oxaspiro[4.5]dec-8-yl]-6-{[2′-(5-oxo-4,5-dihydro-1,2,4-oxadiazol-3-yl)biphenyl-4-yl]methyl}-7-propyl[1,2,4]triazolo[1,5-a]pyrimidin-5(4H)-one]
1.6	35	CCCc1c(Cc2ccc(-c3ccccc3-c3noc(=O)[nH]3)cc2)c(=O)n([C@H]2CC[C@@]3(CCCO3)CC2)c2ncnn12 [Example 151, 4-[(5R,8R)-1-oxaspiro[4.5]dec-8-yl]-6-{[2′-(5-oxo-4,5-dihydro-1,2,4-oxadiazol-3-yl)biphenyl-4-yl]methyl}-7-propyl[1,2,4]triazolo[1,5-a]pyrimidin-5(4H)-one]
1.6	18	CCCc1c(Cc2ccc(-c3ccccc3-c3noc(=O)[nH]3)c(C)c2)c(=O)n([C@H]2CC[C@H](OCC(C)(C)O)CC2)c2nc(C)nn12 [Example 155, 4-[trans-4-(2-hydroxy-2-methylpropoxy)cyclohexyl]-2-methyl-6-{[2-methyl-2′-(5-oxo-4,5-dihydro-1,2,4-oxadiazol-3-yl)biphenyl-4-yl]methyl}-7-propyl[1,2,4]triazolo[1,5-a]pyrimidin-5(4H)-one]
1	18	CCCc1c(Cc2ccc(-c3ccccc3-c3noc(=O)[nH]3)cc2)c(=O)n([C@H]2CC[C@H](OCCO)CC2)c2ncnn12 [Example 164, 4-[trans-4-(2-hydroxyethoxy)cyclohexyl]-6-{[2′-(5-oxo-4,5-dihydro-1,2,4-oxadiazol-3-yl)biphenyl-4-yl]methyl}-7-propyl[1,2,4]triazolo[1,5-a]pyrimidin-5(4H)-one]
1.3	22	CCCc1c(Cc2ccc(-c3ccccc3-c3noc(=O)[nH]3)cc2F)c(=O)n([C@H]2CC[C@@H](O)CC2)c2ncnn12 [Example 166, 6-{[3-fluoro-2′-(5-oxo-4,5-dihydro-1,2,4-oxadiazol-3-yl)biphenyl-4-yl]methyl}-4-(cis-4-hydroxycyclohexyl)-7-propyl[1,2,4]triazolo[1,5-a]pyrimidin-5(4H)-one]
0.8	43	CCCc1c(Cc2ccc(-c3ccccc3-c3noc(=O)[nH]3)cc2F)c(=O)n([C@H]2CC[C@H](O)CC2)c2ncnn12 [Example 167, 6-{[3-fluoro-2′-(5-oxo-4,5-dihydro-1,2,4-oxadiazol-3-yl)biphenyl-4-yl]methyl}-4-(trans-4-hydroxycyclohexyl)-7-propyl[1,2,4]triazolo[1,5-a]pyrimidin-5(4H)-one]
1.4	54	CCCc1c(Cc2ccc(-c3ccccc3-c3noc(=O)[nH]3)cc2)c(=O)n([C@H]2CC[C@H](C(=O)OCC)CC2)c2ncnn12 [Example 168, ethyl trans-4-[5-oxo-6-{[2′-(5-oxo-4,5-dihydro-1,2,4-oxadiazol-3-yl)biphenyl-4-yl]methyl}-7-propyl[1,2,4]triazolo[1,5-a]pyrimidin-4(5H)-yl]cyclohexanecarboxylate]
1.4	54	CCCc1c(Cc2ccc(-c3ccccc3-c3noc(=O)[nH]3)cc2)c(=O)n([C@H]2CC[C@H](c3nc(C)no3)CC2)c2ncnn12 [Example 169, 4-[trans-4-(3-methyl-1,2,4-oxadiazol-5-yl)cyclohexyl]-6-{[2′-(5-oxo-4,5-dihydro-1,2,4-oxadiazol-3-yl)biphenyl-4-yl]methyl}-7-propyl[1,2,4]triazolo[1,5-a]pyrimidin-5(4H)-one]

— patent publication US8283353B2, “Fused ring compound and use thereof” (Takeda Pharmaceutical Company Limited, priority 2009, dated 2012)
